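Dose response: 5 concentrations. Exposure: 48 h. Format: 96-well plates. Endpoint: linear interpolation; highest concentration if not reached. GI50 marks 50% less growth.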 Active and inactive are the calls of the source. Cut-off read from the data, not from the text of the source: active = GI50 up to about 1.1 µM and inactive = higher.
Assays:
Assay in all cases: DTP human tumour cell line panel, 48 h
HCT-116 = system: HCT-116
A549 = system: A549
MCF7 = system: MCF7
M14 = system: M14
SK-MEL-2 = system: SK-MEL-2
CCRF-CEM = system: CCRF-CEM
COLO 205 = system: COLO 205
SF-539 = system: SF-539
UO-31 = system: UO-31
HL-60 = system: HL-60
TK-10 = system: TK-10
SR = system: SR
SN12C = system: SN12C
HT-29 = system: HT-29
K562 = system: K562
Malme-3M = system: Malme-3M
SW-620 = system: SW-620
786-0 = system: 786-0
MDA-N = system: MDA-N
T47D = system: T47D

SMILES	GI50 (HCT-116)	GI50 (A549)	GI50 (MCF7)	GI50 (M14)	GI50 (SK-MEL-2)	GI50 (CCRF-CEM)	GI50 (COLO 205)	GI50 (SF-539)	GI50 (UO-31)	GI50 (HL-60)	GI50 (TK-10)	GI50 (SR)	GI50 (SN12C)	GI50 (HT-29)	GI50 (K562)	GI50 (Malme-3M)	GI50 (SW-620)	GI50 (786-0)	GI50 (MDA-N)	GI50 (T47D)
c1csc(-c2cc(-c3cccs3)c(-c3ccsc3)s2)c1	> 100 µM (inactive)	> 100 µM (inactive)	24.7 µM (inactive)	> 100 µM (inactive)	> 100 µM (inactive)	> 100 µM (inactive)	55.5 µM (inactive)	> 100 µM (inactive)	> 100 µM (inactive)	> 100 µM (inactive)	> 100 µM (inactive)	> 100 µM (inactive)	56.8 µM (inactive)	> 100 µM (inactive)	> 100 µM (inactive)	> 100 µM (inactive)	> 100 µM (inactive)	> 100 µM (inactive)	> 100 µM (inactive)	17.6 µM (inactive)
O=C1C(NS(=O)(=O)c2ccccc2)=C(N(Cc2ccccc2)Cc2ccccc2)C(=O)c2ccccc21	36.7 µM (inactive)	33 µM (inactive)	49.7 µM (inactive)	43.7 µM (inactive)	20.8 µM (inactive)	20.2 µM (inactive)	39.6 µM (inactive)	67.5 µM (inactive)	19.2 µM (inactive)	20.7 µM (inactive)	66.8 µM (inactive)	22.7 µM (inactive)	41.5 µM (inactive)	60.3 µM (inactive)	31.1 µM (inactive)	0.273 µM (active)	38.9 µM (inactive)	49.3 µM (inactive)	64.6 µM (inactive)	32.1 µM (inactive)
CC1(C)OCC2OC(n3cnc4c(N)nc(Cl)nc43)C(OS(C)(=O)=O)C2O1 (stereo not given)	> 100 µM (inactive)	> 100 µM (inactive)	> 100 µM (inactive)	> 100 µM (inactive)	> 100 µM (inactive)	> 100 µM (inactive)	> 100 µM (inactive)	> 100 µM (inactive)	> 100 µM (inactive)	> 100 µM (inactive)	> 100 µM (inactive)	> 100 µM (inactive)	> 100 µM (inactive)	> 100 µM (inactive)	> 100 µM (inactive)	> 100 µM (inactive)	> 100 µM (inactive)	> 100 µM (inactive)	> 100 µM (inactive)	> 100 µM (inactive)
CC(C)(Cl)C(Cl)CC/C(CBr)=C(\Cl)CCl (stereo not given)	3.93 µM (inactive)	18 µM (inactive)	11 µM (inactive)	1.81 µM (inactive)	2.47 µM (inactive)	0.294 µM (active)	4.89 µM (inactive)	4.86 µM (inactive)	6.53 µM (inactive)	0.582 µM (active)	14.1 µM (inactive)	0.485 µM (active)	3.52 µM (inactive)	2.82 µM (inactive)	0.678 µM (active)	6.85 µM (inactive)	1.96 µM (inactive)	2.55 µM (inactive)	2.21 µM (inactive)	1.82 µM (inactive)
COC(=O)/C=C(\S/C(=N\n1cc(C(=O)OC)c(C(=O)OC)c1-c1ccc(C)cc1)c1ccc(C)cc1)C(=O)OC	1.97 µM (inactive)	18.7 µM (inactive)	6.7 µM (inactive)	5.94 µM (inactive)	6.12 µM (inactive)	0.34 µM (active)	2.45 µM (inactive)	17.9 µM (inactive)	2.52 µM (inactive)	4.62 µM (inactive)	3.03 µM (inactive)	1.16 µM (inactive)	6.18 µM (inactive)	4.91 µM (inactive)	1.43 µM (inactive)	6.52 µM (inactive)	1.77 µM (inactive)	4.44 µM (inactive)	5.79 µM (inactive)	1.03 µM (active)
CC[n+]1c(/C=C/c2ccc(N(CCCl)CCCl)cc2)ccc2cc(NC(=O)/C=C/c3ccccc3)ccc21	0.317 µM (active)	0.279 µM (active)	0.139 µM (active)	0.436 µM (active)	0.431 µM (active)	0.118 µM (active)	0.104 µM (active)	0.308 µM (active)	16.6 µM (inactive)	0.115 µM (active)	2.95 µM (inactive)	0.189 µM (active)	0.261 µM (active)	0.344 µM (active)	0.134 µM (active)	0.291 µM (active)	0.208 µM (active)	0.336 µM (active)	0.6 µM (active)	0.249 µM (active)
Cc1nnc2n(c1=O)CCCN2C	> 100 µM (inactive)	> 100 µM (inactive)	> 100 µM (inactive)	> 100 µM (inactive)	> 100 µM (inactive)	> 100 µM (inactive)	> 100 µM (inactive)	> 100 µM (inactive)	> 100 µM (inactive)	> 100 µM (inactive)	> 100 µM (inactive)	> 100 µM (inactive)	> 100 µM (inactive)	> 100 µM (inactive)	> 100 µM (inactive)	> 100 µM (inactive)	> 100 µM (inactive)	> 100 µM (inactive)	> 100 µM (inactive)	> 100 µM (inactive)
Nc1nc(N)c2nc(CN(C=O)c3ccc(C(=O)O)cc3)cnc2n1	3.84 µM (inactive)	6.14 µM (inactive)	5.31 µM (inactive)	7.43 µM (inactive)	> 100 µM (inactive)	4.15 µM (inactive)	> 100 µM (inactive)	8.26 µM (inactive)	> 22.3 µM (inactive)	18.8 µM (inactive)	> 29.2 µM (inactive)	10.1 µM (inactive)	52.6 µM (inactive)	> 100 µM (inactive)	1.6 µM (inactive)	8.18 µM (inactive)	17 µM (inactive)	3.05 µM (inactive)	8.71 µM (inactive)	> 100 µM (inactive)
COC(=O)C1C(C(=O)OC)C2(OC(c3ccc(Cl)cc3)=CC2=O)C12OC(c1ccc(Cl)cc1)=CC2=O (stereo not given)	14.9 µM (inactive)	34.1 µM (inactive)	18 µM (inactive)	19.1 µM (inactive)	24 µM (inactive)	3.01 µM (inactive)	16.7 µM (inactive)	18.3 µM (inactive)	16.6 µM (inactive)	2.81 µM (inactive)	22.6 µM (inactive)	1.96 µM (inactive)	20.5 µM (inactive)	16.7 µM (inactive)	19.3 µM (inactive)	17.3 µM (inactive)	32.7 µM (inactive)	16.6 µM (inactive)	18.3 µM (inactive)	14.8 µM (inactive)
CCOC(=O)c1sc2[n+](c1C)C(=O)/C(=C/c1ccccc1Cl)S2	0.627 µM (active)	0.9 µM (active)	3.11 µM (inactive)	2.2 µM (inactive)	9.35 µM (inactive)	15.3 µM (inactive)	3.13 µM (inactive)	0.472 µM (active)	0.684 µM (active)	4.12 µM (inactive)	15.3 µM (inactive)	0.394 µM (active)	14.3 µM (inactive)	3.44 µM (inactive)	0.505 µM (active)	11 µM (inactive)	0.883 µM (active)	0.618 µM (active)	0.259 µM (active)	15.3 µM (inactive)
Cc1c2cccc-2c2cc(O)c3ccccc3c2n1-c1ccc(N(C)C)cc1	15.7 µM (inactive)	14.6 µM (inactive)	0.395 µM (active)	14.5 µM (inactive)	16.7 µM (inactive)	9.77 µM (inactive)	16.1 µM (inactive)	14.3 µM (inactive)	11.5 µM (inactive)	19.9 µM (inactive)	13 µM (inactive)	4.63 µM (inactive)	16.1 µM (inactive)	16.7 µM (inactive)	6.81 µM (inactive)	15.6 µM (inactive)	20.7 µM (inactive)	12.2 µM (inactive)	17 µM (inactive)	0.304 µM (active)
O=C1C(Br)=C(c2ccccc2)C(c2ccccc2)=C1c1ccccc1	1.9 µM (inactive)	13.1 µM (inactive)	2.4 µM (inactive)	2.15 µM (inactive)	4.41 µM (inactive)	0.269 µM (active)	1.87 µM (inactive)	3.01 µM (inactive)	5.5 µM (inactive)	0.67 µM (active)	3.42 µM (inactive)	0.979 µM (active)	1.95 µM (inactive)	2.28 µM (inactive)	1.61 µM (inactive)	1.75 µM (inactive)	1.77 µM (inactive)	1.95 µM (inactive)	2.98 µM (inactive)	2.37 µM (inactive)
O=C(CC(O)(C(F)(F)Cl)C(F)(F)Cl)CC(O)(C(F)(F)Cl)C(F)(F)Cl	1.19 µM (inactive)	1.73 µM (inactive)	2.14 µM (inactive)	4.03 µM (inactive)	1.13 µM (inactive)	2.29 µM (inactive)	1.63 µM (inactive)	2.95 µM (inactive)	0.929 µM (active)	1.78 µM (inactive)	1.81 µM (inactive)	2.65 µM (inactive)	4.65 µM (inactive)	1.65 µM (inactive)	0.843 µM (active)	0.483 µM (active)	3.36 µM (inactive)	2.89 µM (inactive)	3.49 µM (inactive)	0.647 µM (active)
COc1c2cc(C(C)(C)C)cc1CSCc1cc(C(C)(C)C)cc(c1OC)CCCCC2	27.4 µM (inactive)	37.7 µM (inactive)	> 50 µM (inactive)	46.7 µM (inactive)	25.1 µM (inactive)	33.1 µM (inactive)	> 50 µM (inactive)	19.6 µM (inactive)	20.7 µM (inactive)	> 50 µM (inactive)	31.9 µM (inactive)	> 50 µM (inactive)	> 50 µM (inactive)	> 50 µM (inactive)	> 50 µM (inactive)	29 µM (inactive)	> 50 µM (inactive)	> 50 µM (inactive)	> 50 µM (inactive)	30 µM (inactive)

From ChEMBL document CHEMBL1201862, “PubChem BioAssay data set” (2004)
